How the values were obtained:
h5-HT6R = biological target: T1, h5-HT6R (Homo sapiens, UniProt P50406); assay: 5-HT6R antagonist activity at Gs signaling, cAMP in 1321N1 cells (5-CT stimulated); type: cell-based; conditions: 1321N1 cells expressing h5-HT6R; read-out: EC50 (agonist, cAMP production)
T1 construct: expressed in transfected cells

[1] = system: SCOP-induced cognitive impairment in rats; assay: Scopolamine-induced amnesia in NOR test in rats; type: in vivo, rat; conditions: SCOP 1.25 mg/kg ip, PZ-1922 0.3, 1, 3 mg/kg ip, donepezil 1 and 3 mg/kg ip
Description: Rats were allowed to acclimate for at least 7 days before the beginning of the experimental procedure. During this week, the animals were handled at least 3 times. Behavioral testing was carried out during the light phase of the light/dark cycle. The experiments were conducted in accordance with the NIH Guide for the Care and Use of Laboratory Animals and were approved by the Ethics Committee for Animal Experiments, Maj Institute of Pharmacology. At least 1 h before the beginning of the experiments, rats were transferred to the experimental room for acclimation. Rats were tested in a dimly lit (25 lx) “open field” apparatus made of dull gray plastic (66 × 56 × 30 cm). After each measurement, the floor was cleaned and dried. […] For the scopolamine-induced memory impairment paradigm, 1 h ITI was chosen. During the first trial (familiarization T1), two identical objects (A1 and A2) were presented in opposite corners, approximately 10 cm from the walls of the open field. In the second trial (recognition, T2), one of the objects was replaced by a novel one (A = familiar and B = novel). […] Exploration time of the objects and the distance traveled were measured using the Any-maze video tracking system. Based on exploration time (E) of two objects during T2, the discrimination index (DI) was calculated according to the formula DI = (EB – EA)/(EA + AB).

[2] = biological target: the molecule itself; assay: cryo-EM structure; purified receptor in detergent C12E9, pentameric SEC fractions concentrated to 10 mg/mL, incubated 5 min with PZ-1922 or PZ-1939 before freezing

T1 sequence (P50406 whole entry): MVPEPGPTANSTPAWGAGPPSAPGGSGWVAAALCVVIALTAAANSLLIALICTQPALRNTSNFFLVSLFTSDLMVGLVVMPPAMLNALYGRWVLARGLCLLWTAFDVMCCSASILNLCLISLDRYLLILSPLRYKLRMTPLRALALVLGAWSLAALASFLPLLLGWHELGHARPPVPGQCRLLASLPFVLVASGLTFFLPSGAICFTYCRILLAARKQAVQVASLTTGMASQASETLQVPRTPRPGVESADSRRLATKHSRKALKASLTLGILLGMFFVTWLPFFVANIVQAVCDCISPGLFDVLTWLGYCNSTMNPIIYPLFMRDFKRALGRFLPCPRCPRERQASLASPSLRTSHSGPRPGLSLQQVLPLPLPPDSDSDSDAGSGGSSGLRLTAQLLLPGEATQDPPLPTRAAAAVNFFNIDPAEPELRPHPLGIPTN

**Q.** How did the EC50 (h5-HT6R) turn out when NCCc1c[nH]c2ccc(C(N)=O)cc12 [Compound 5-CT, 5-carboxamidotryptamine] was run?
**A.** Its EC50 is 13 nM.

**Q.** For COc1cc2c(cc1OC)C(=O)C(CC1CCN(Cc3ccccc3)CC1)C2 (stereo not drawn) [donepezil], which “effect on SCOP-induced short-term memory deficits (discrimination index) in NOR test” value [1] is on record?
**A.** Its value is “reduced the memory deficits induced by SCOP”.

B1: mouse 5-HT3A receptor (receptor, UniProt P23979 24-489, looked up)
chain: SRRRATQARDTTQPALLRLSDHLLANYKKGVRPVRDWRKPTTVSIDVIMYAILNVDEKNQVLTTYIWYRQYWTDEFLQWTPEDFDNVTKLSIPTDSIWVPDILINEFVDVGKSPNIPYVYVHHRGEVQNYKPLQLVTACSLDIYNFPFDVQNCSLTFTSWLHTIQDINITLWRSPEEVRSDKSIFINQGEWELLEVFPQFKEFSIDISNSYAEMKFYVIIRRRPLFYAVSLLLPSIFLMVVDIVGFCLPPDSGERVSFKITLLLGYSVFLIIVSDTLPATAIGTPLIGVYFVVCMALLVISLAETIFIVRLVHKQDLQRPVPDWLRHLVLDRIAWILCLGEQPMAHRPPATFQANKTDDCSGSDLLPAMGNHCSHVGGPQDLEKTPRGRGSPLPPPREASLAVRGLLQELSSIRHFLEKRDEMREVARDWLRVGYVLDRLLFRIYLLAVLAYSITLVTLWSIWHYS
notes: 5-hydroxytryptamine (serotonin) receptor 3A, mouse; called full-length in the discussion; the construct is only said to be 'as previously described with some minor modifications'; The intracellular domain is only partly resolved; also called m5-HT3R; m5HT3R
**Q.** Which “stoichiometry N” value [2] does the source give for B1 here?
**A.** The value was 5.
